Data from US5395947A, “Platinum(II) complex and processes for preparing the same” (Sunkyong Industries, Ltd., priority 1991, dated 1995).

Legend:
murine leukemia L1210 = assay: Antitumor activity test on murine leukemia L1210 in vivo; design: species or system male BDF1 mice; details: days 1, 5, 9
Experimental: 2. Antitumor activity test on murine leukemia L1210 in vivo
Murine leukemia L1210 cells were maintained in the peritoneal cavities of 6-week-old male DBA/2 mice by weekly transfer in accordance with the procedure described in cancer chemotherapy Reports, Part 3, 3(2), 7 (1972). Specifically, 1×10^6 leukemia cells were inoculated into the abdominal cavities of 6-week-old male BDF1 mice weighing 21±3 g on day 0. Each treatment group consisted of seven mice. The test compounds were dissolved or suspended in 0.5% carboxymethyl cellulose(CMC)solution (in water) and were administered intraperitoneally on days 1, 5, and 9 relative to the tumor inoculation.
Thirty mice of 6-week-old male BDF1 weighing 21±3 g were used as the control group, which were injected with 0.5% CMC solution only in the same manner as above.
Anti-tumor activities of the compounds were evaluated in terms of the T/C % values calculated from the mean survival time(T) of the compound-treated group over that(C) of the control group. [formula]

[1] = tested on: murine leukemia L1210 cells; assay: Growth inhibition test on cultured murine leukemia L1210 cells; type: cell-based; details: 48 hours, 37° C., Trypan blue viability
Experimental: 1. Growth inhibition test on cultured murine leukemia L1210 cells
Murine leukemia L1210 cells(1×10^5) were treated with various concentrations of the compounds prepared in the above examples in RPMI 1640 medium supplemented with 10% fetal calf serum, and cultured in a 5% CO2 humidified incubator at 37° C. for 48 hours. Their viability, estimated by staining with 0.17% Trypan blue, was compared with that of control cells cultured in the identical medium without the compounds.

ICR mice = assay: Acute toxicity test; type: in vivo; design: Lethality: unit not given here; details: for Lethality: 10080 min
Experimental: 7-week-old ICR mice(male: 34±2 g; female: 31±2 g) were fed with solid food and water under the condition of 23±1° C. temperature and 65±5% humidity before the test.
Each treatment group consisted of 6 mice. The test compounds were administered intraperitoneally.
For 7 days after the administration, the appearance and the fate of the tested animals were recorded. The dead animals were subjected to autopsy and their visible pathological changes were observed. Their viscerals were stored in 10% formalin solution.

[2] = Test for water solubility; type: physicochemical; details: 20° C.
From the text: 3. Test for water solubility
A standard plot of UV absorbance(220 nm) vs. concentration was made; and employed to determine water-solubility.
The mixture was then passed through a 0.45 micron disposable membrane filter before dilution and UV measurement.

## CC(C)C1O[C@H](C[NH-])[C@@H](C[NH-])O1.O=C([O-])CC(=O)[O-].[Pt+4] (relative stereo) [Example 38, cis-malonato[(4R,5R)-4,5-bis(aminomethyl)-2-isopropyl-1,3-dioxolane]platinum(II)]
Murine leukemia L1210; 12.5 mg/kg i.p.
  T/C (%): 123%
Murine leukemia L1210; 25 mg/kg i.p.
  T/C (%): 148%
Murine leukemia L1210; 50 mg/kg i.p.
  T/C (%): 220%
[1]
  IC50 (concentration required for 50% inhibition of growth): 0.43 µg/mL

## NC[C@H]1OCO[C@@H]1CN.O=C1C[O][Pt][O]1 [Example 1, (glycolato-O,O')[(4R,5R)-4,5-bis(aminomethyl)-1,3-dioxolane]platinum(II)]
Murine leukemia L1210; 3.1 mg/kg i.p.
  T/C (%): 95%
Murine leukemia L1210; 6.2 mg/kg i.p.
  T/C (%): 132%
Murine leukemia L1210; 12.5 mg/kg i.p.
  T/C (%): 137%
Murine leukemia L1210; 25 mg/kg i.p.
  T/C (%): 160%
Murine leukemia L1210; 50 mg/kg i.p.
  T/C (%): toxic
[1]
  IC50 (concentration required for 50% inhibition of growth): 0.36 µg/mL

## CC1O[C@H](CN)[C@@H](CN)O1.O=C1C[O][Pt][O]1 [Example 5, (glycolato-O,O')[(4R,5R)-4,5-bis(aminomethyl)-2-methyl-1,3-dioxolane]platinum(II)]
Murine leukemia L1210; 3.1 mg/kg i.p.
  T/C (%): 104%
Murine leukemia L1210; 6.2 mg/kg i.p.
  T/C (%): 136%
Murine leukemia L1210; 12.5 mg/kg i.p.
  T/C (%): 154%
Murine leukemia L1210; 50 mg/kg i.p.
  T/C (%): toxic
[1]
  IC50 (concentration required for 50% inhibition of growth): 0.35 µg/mL

## CC1[O][Pt][O]C1=O.NCC1OCOC1CN [Example 13, (L-lactato-O,O')[(4R,5R)-4,5-bis(aminomethyl)-1,3-dioxolane]platinum(II)]
Murine leukemia L1210; 12.5 mg/kg i.p.
  T/C (%): 178%
Murine leukemia L1210; 25 mg/kg i.p.
  T/C (%): 207%
Murine leukemia L1210; 50 mg/kg i.p.
  T/C (%): 92%
[1]
  IC50 (concentration required for 50% inhibition of growth): 0.55 µg/mL

## CC1(C)OC(CN)C(CN)O1.CC1[O][Pt][O]C1=O [Example 14, (L-lactato-O,O')[(4R,5R)-4,5-bis(aminomethyl)-2,2-dimethyl-1,3-dioxolane]platinum(II)]
Murine leukemia L1210; 12.5 mg/kg i.p.
  T/C (%): 213%
Murine leukemia L1210; 25 mg/kg i.p.
  T/C (%): toxic
Murine leukemia L1210; 50 mg/kg i.p.
  T/C (%): toxic
[1]
  IC50 (concentration required for 50% inhibition of growth): 0.46 µg/mL

## CC1OC(CN)C(CN)O1.CC1[O][Pt][O]C1=O [Example 17, (L-lactato-O,O')[(4R,5R)-4,5-bis(aminomethyl)-2-methyl-1,3-dioxolane]platinum(II)]
Murine leukemia L1210; 12.5 mg/kg i.p.
  T/C (%): 201%
Murine leukemia L1210; 25 mg/kg i.p.
  T/C (%): 327%
Murine leukemia L1210; 50 mg/kg i.p.
  T/C (%): 139%
[1]
  IC50 (concentration required for 50% inhibition of growth): 0.44 µg/mL

## CC1[O][Pt][O]C1=O.CCC1OC(CN)C(CN)O1 [Example 18, (L-lactato-O,O')[(4R,5R)-4,5-bis(aminomethyl)-2-ethyl-1,3-dioxolane]platinum(II)]
Murine leukemia L1210; 12.5 mg/kg i.p.
  T/C (%): 206%
Murine leukemia L1210; 25 mg/kg i.p.
  T/C (%): 165%
Murine leukemia L1210; 50 mg/kg i.p.
  T/C (%): toxic
ICR mice; female, 41.3 mg/kg i.p.
  Number of dead mice for 7 days: 3/6
  Number of dead mice, 1st day: 0/6
  Number of dead mice, 5th day: 1/6
  Number of dead mice, 6th day: 2/5
  Lethality: 55.0
ICR mice; female, 54.9 mg/kg i.p.
  Number of dead mice for 7 days: 4/6
  Number of dead mice, 1st day: 0/6
  Number of dead mice, 3rd day: 1/6
  Number of dead mice, 4th day: 2/5
  Number of dead mice, 5th day: 1/3
  Lethality: 66.7
ICR mice; female, 71.4 mg/kg i.p.
  Number of dead mice for 7 days: 5/6
  Number of dead mice, 1st day: 0/6
  Number of dead mice, 4th day: 1/6
  Number of dead mice, 5th day: 3/5
  Number of dead mice, 6th day: 1/2
  Lethality: 83.3
ICR mice; female, 91.8 mg/kg i.p.
  Number of dead mice for 7 days: 6/6
  Number of dead mice, 1st day: 1/6
  Number of dead mice, 2nd day: 1/6
  Number of dead mice, 3rd day: 2/5
  Number of dead mice, 4th day: 2/3
  Number of dead mice, 5th day: 1/1
  Lethality: 100.0
ICR mice; male, 41.3 mg/kg i.p.
  Number of dead mice for 7 days: 4/6
  Number of dead mice, 1st day: 0/6
  Number of dead mice, 4th day: 1/6
  Number of dead mice, 5th day: 1/5
  Number of dead mice, 6th day: 2/4
  Lethality: 66.7
ICR mice; male, 54.9 mg/kg i.p.
  Number of dead mice for 7 days: 4/6
  Number of dead mice, 1st day: 0/6
  Number of dead mice, 2nd day: 1/6
  Number of dead mice, 3rd day: 1/5
  Number of dead mice, 4th day: 1/4
  Number of dead mice, 5th day: 1/3
  Lethality: 66.7
ICR mice; male, 71.4 mg/kg i.p.
  Number of dead mice for 7 days: 5/6
  Number of dead mice, 1st day: 0/6
  Number of dead mice, 4th day: 2/6
  Number of dead mice, 5th day: 2/4
  Number of dead mice, 6th day: 1/2
  Lethality: 83.3
ICR mice; male, 91.8 mg/kg i.p.
  Number of dead mice for 7 days: 6/6
  Number of dead mice, 1st day: 0/6
  Number of dead mice, 2nd day: 3/6
  Number of dead mice, 4th day: 1/3
  Number of dead mice, 5th day: 1/2
  Number of dead mice, 6th day: 1/1
  Lethality: 100.0
[1]
  IC50 (concentration required for 50% inhibition of growth): 0.32 µg/mL

## O=C1[O][Pt-2]2([NH2+]CC3OCOC3C[NH2+]2)[O]C(=O)C12CCC2 [Example 21, cis-cyclobutane-1,1-dicarboxylato[(4S,5S)-4,5-bis(aminomethyl)-1,3-dioxolane]platinum(II)]
[2]
  Solubility in water: 3100 µg/mL
[1]
  IC50 (concentration required for 50% inhibition of growth): 2.08 µg/mL

## O=C1CC(=O)[O][Pt-2]2([NH2+]CC3OCOC3C[NH2+]2)[O]1 [Example 33, cis-malonato[(4R,5R)-4,5-bis(aminomethyl)-1,3-dioxolane]platinum(II)]
Murine leukemia L1210; 12.5 mg/kg i.p.
  T/C (%): 146%
Murine leukemia L1210; 25 mg/kg i.p.
  T/C (%): 133%
Murine leukemia L1210; 50 mg/kg i.p.
  T/C (%): 276%
[1]
  IC50 (concentration required for 50% inhibition of growth): 0.50 µg/mL

## CC1OC2C[NH2+][Pt-2]3([NH2+]CC2O1)[O]C(=O)CC(=O)[O]3 [Example 34, cis-malonato[(4R,5R)-4,5-bis(aminomethyl)-2-methyl-1,3-dioxolane]platinum(II)]
Murine leukemia L1210; 12.5 mg/kg i.p.
  T/C (%): 140%
Murine leukemia L1210; 25 mg/kg i.p.
  T/C (%): 156%
Murine leukemia L1210; 50 mg/kg i.p.
  T/C (%): 241%
[1]
  IC50 (concentration required for 50% inhibition of growth): 0.60 µg/mL

## CCC1OC2C[NH2+][Pt-2]3([NH2+]CC2O1)[O]C(=O)CC(=O)[O]3 [Example 35, cis-malonato[(4R,5R)-4,5-bis(aminomethyl)-2-ethyl-1,3-dioxolane]platinum(II)]
Murine leukemia L1210; 12.5 mg/kg i.p.
  T/C (%): 144%
Murine leukemia L1210; 25 mg/kg i.p.
  T/C (%): 204%
Murine leukemia L1210; 50 mg/kg i.p.
  T/C (%): 245%
[1]
  IC50 (concentration required for 50% inhibition of growth): 0.44 µg/mL

## CC1(C)OC2C[NH2+][Pt-2]3([NH2+]CC2O1)[O]C(=O)CC(=O)[O]3 [Example 36, cis-malonato[(4R,5R)-4,5-bis(aminomethyl)-2,2-dimethyl-1,3-dioxolane]platinum(II)]
Murine leukemia L1210; 12.5 mg/kg i.p.
  T/C (%): 133%
Murine leukemia L1210; 25 mg/kg i.p.
  T/C (%): 179%
Murine leukemia L1210; 50 mg/kg i.p.
  T/C (%): 190%
[1]
  IC50 (concentration required for 50% inhibition of growth): 0.76 µg/mL

## O=C1CC(=O)[O][Pt-2]2([NH2+]CC3OC4(CCCC4)OC3C[NH2+]2)[O]1 [Example 39, cis-malonato[(4R,5R)-4,5-bis(aminomethyl)-1,3-dioxolane-2-spiro-1'-cyclopentane]platinum(II)]
Murine leukemia L1210; 12.5 mg/kg i.p.
  T/C (%): 217%
Murine leukemia L1210; 25 mg/kg i.p.
  T/C (%): 169%
Murine leukemia L1210; 50 mg/kg i.p.
  T/C (%): 203%
[1]
  IC50 (concentration required for 50% inhibition of growth): 0.31 µg/mL

## CCC1OC2C[NH2+][Pt-2]3([NH2+]CC2O1)[O]C(=O)C(C)(C)C(=O)[O]3 [Example 40, cis-dimethylmalonato[(4R,5R)-4,5-bis(aminomethyl)-2-ethyl-1,3-dioxolane]platinum(II)]
Murine leukemia L1210; 25 mg/kg i.p.
  T/C (%): 213%
Murine leukemia L1210; 50 mg/kg i.p.
  T/C (%): 165%
Murine leukemia L1210; 100 mg/kg i.p.
  T/C (%): 248%
[1]
  IC50 (concentration required for 50% inhibition of growth): 0.52 µg/mL

## CC(C)C1OC2C[NH2+][Pt-2]3([NH2+]CC2O1)[O]C(=O)C(C)(C)C(=O)[O]3 [Example 41, cis-dimethylmalonato[(4R,5R)-4,5-bis(aminomethyl)-2-isopropyl-1,3-dioxolane]platinum(II)]
Murine leukemia L1210; 25 mg/kg i.p.
  T/C (%): 123%
Murine leukemia L1210; 50 mg/kg i.p.
  T/C (%): 174%
Murine leukemia L1210; 100 mg/kg i.p.
  T/C (%): 204%
[1]
  IC50 (concentration required for 50% inhibition of growth): 0.44 µg/mL

## CC1(C)C(=O)[O][Pt-2]2([NH2+]CC3OC4(CCCC4)OC3C[NH2+]2)[O]C1=O [Example 42, cis-dimethylmalonato[(4R,5R)-4,5-bis(aminomethyl)-1,3-dioxolane-2-spiro-1'-cyclopentane]platinum(II)]
Murine leukemia L1210; 25 mg/kg i.p.
  T/C (%): 172%
Murine leukemia L1210; 50 mg/kg i.p.
  T/C (%): 160%
Murine leukemia L1210; 100 mg/kg i.p.
  T/C (%): 150%
[1]
  IC50 (concentration required for 50% inhibition of growth): 0.54 µg/mL
